This passage reports IC50 results from patent US20220112187A1, “PYRAZOLOPYRIDINE AMINE COMPOUNDS FOR THE TREATMENT OF AUTOIMMUNE DISEASE” (Hoffmann-La Roche Inc., priority 2018, published 2022).

A word on the IC50: it is the concentration needed to halve the response being measured. Read a low IC50 as greater potency in that assay.

The experiment has as its target T1, human TLR7 (Homo sapiens, UniProt Q9NYK1).
T1 sequence (Q9NYK1 27-1049): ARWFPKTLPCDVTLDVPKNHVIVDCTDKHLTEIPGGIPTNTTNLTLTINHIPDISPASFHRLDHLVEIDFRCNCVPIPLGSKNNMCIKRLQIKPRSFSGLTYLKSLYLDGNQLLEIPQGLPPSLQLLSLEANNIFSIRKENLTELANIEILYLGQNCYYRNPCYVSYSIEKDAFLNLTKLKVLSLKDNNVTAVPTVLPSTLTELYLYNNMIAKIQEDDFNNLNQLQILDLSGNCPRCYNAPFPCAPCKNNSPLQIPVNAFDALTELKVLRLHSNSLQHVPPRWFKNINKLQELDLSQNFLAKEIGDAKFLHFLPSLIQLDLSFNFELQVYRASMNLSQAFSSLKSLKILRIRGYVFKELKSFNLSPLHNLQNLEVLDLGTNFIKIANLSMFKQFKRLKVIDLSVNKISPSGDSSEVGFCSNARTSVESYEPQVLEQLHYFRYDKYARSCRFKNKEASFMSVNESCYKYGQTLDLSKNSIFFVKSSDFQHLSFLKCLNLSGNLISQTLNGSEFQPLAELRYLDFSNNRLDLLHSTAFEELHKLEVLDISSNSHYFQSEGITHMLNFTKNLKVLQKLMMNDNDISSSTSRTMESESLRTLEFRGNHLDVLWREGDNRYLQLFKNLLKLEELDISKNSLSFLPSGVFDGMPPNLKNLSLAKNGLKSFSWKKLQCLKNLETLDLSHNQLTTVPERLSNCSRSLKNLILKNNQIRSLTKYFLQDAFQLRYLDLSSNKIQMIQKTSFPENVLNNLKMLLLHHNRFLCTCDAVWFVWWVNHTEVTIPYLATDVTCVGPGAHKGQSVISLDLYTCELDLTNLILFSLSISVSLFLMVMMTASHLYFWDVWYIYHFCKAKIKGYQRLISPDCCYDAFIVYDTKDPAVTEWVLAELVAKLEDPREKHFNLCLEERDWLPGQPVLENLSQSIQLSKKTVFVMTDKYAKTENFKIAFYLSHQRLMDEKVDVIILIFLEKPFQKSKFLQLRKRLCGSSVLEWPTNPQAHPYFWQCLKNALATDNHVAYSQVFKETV
Put plainly: HEK293-Blue-hTLR-7 cells assay (SEAP reporter, R848 stimulation). Particulars: HEK293-Blue-hTLR7 cells, R848 ligand, 20 hrs incubation. It is filed as cell-based. The procedure, abridged: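 Antagonist mode: HEK293-Blue-hTLR7 cells (250,000–450,000 cells/mL) incubated 20 h at 37° C. with serially diluted compound (1% DMSO) and R848 (20 uM stock). NF-κB/AP-1-driven SEAP in supernatant read with QUANTI-Blue after 2 h at 37° C., absorbance 620–655 nm.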
The compound `C[C@@H]1CN(c2ccc(C#N)n3nccc23)C[C@H](CN2CCN(C)CC2)O1` [Example 15, 4-[(2R,6S)-2-methyl-6-[(4-methylpiperazin-1-yl)methyl]morpholin-4-yl]pyrazolo[1,5-a]pyridine-7-carbonitrile] registered an IC50 of 77 nM.
Regarding `C[C@@H]1CN(c2ccc(C#N)n3nccc23)C[C@H](CN2C3CCC2CNC3)O1` [Example 43, 4-[(2S,6R)-2-(3,8-diazabicyclo[3.2.1]octan-8-ylmethyl)-6-methyl-morpholin-4-yl]pyrazolo[1,5-a]pyridine-7-carbonitrile], the IC50 was 59 nM.
As to `C[C@@H]1CN(c2ccc(C#N)n3nccc23)C[C@H](CN2CCN(C(=O)CN)CC2)O1` [Example 14, 4-[(2S,6R)-2-[[4-(2-aminoacetyl)piperazin-1-yl]methyl]-6-methyl-morpholin-4-yl]pyrazolo[1,5-a]pyridine-7-carbonitrile], half-maximal inhibition (IC50) was put at 460 nM.
Turning to `C[C@@H]1CN(c2ccc(C#N)n3nccc23)C[C@H](CNC2CCN(C)CC2)O1` [Example 7, 4-[(2R,6S)-2-methyl-6-[[(1-methyl-4-piperidyl)amino]methyl]morpholin-4-yl]pyrazolo[1,5-a]pyridine-7-carbonitrile], 260 nM corresponded to half-maximal inhibition (IC50).
Compound `C[C@@H]1CN(c2ccc(C#N)n3nccc23)C[C@H](CN2CCC3(CCNCC3)C2)O1` [Example 18, 4-[(2S,6R)-2-(2,8-diazaspiro[4.5]decan-2-ylmethyl)-6-methyl-morpholin-4-yl]pyrazolo[1,5-a]pyridine-7-carbonitrile] displayed an IC50 of 200 nM.
`CC1CNCCN1C[C@H]1CN(c2ccc(C#N)n3nccc23)C[C@@H](C)O1` (single isomer, unassigned) [Example 50A] displayed an IC50 of 230 nM.
